# Laboratory results from ChEMBL document CHEMBL1201862, “PubChem BioAssay data set” (2004).
#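 1) Cells in 96-well plates. 2) Compound, 48 h, 5 concentrations. 3) Linear interpolation between surrounding doses. 4) Unreached endpoint = highest concentration. GI50 marks 50% less growth.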 Calls of active or inactive are those of the source. No stated cut-off is given here; in the data, active = GI50 up to about 1.1 µM and inactive = higher.
# Assays:
# Experiment in all cases: NCI tumour cell line growth inhibition, 48 h
# [1] = system: A498
# [2] = system: ACHN
# [3] = system: CCRF-CEM
# [4] = system: DMS-114
# [5] = system: DMS-273
# [6] = system: EKVX
# [7] = system: HCT-116
# [8] = system: HL-60
# [9] = system: HOP-62
# [10] = system: HOP-92
# [11] = system: HT-29
# [12] = system: IGROV-1
# [13] = system: K562
# [14] = system: KM-20L2
# [15] = system: KM12
# [16] = system: M14
# [17] = system: M19-MEL
# [18] = system: MOLT-4
# [19] = system: NCI-H23
# [20] = system: NCI-H460
# [21] = system: NCI-H522
# [22] = system: OVCAR-5
# [23] = system: OVCAR-8
# [24] = system: RXF 393
# [25] = system: RXF 631
# [26] = system: SF-295
# [27] = system: SK-MEL-28
# [28] = system: SK-OV-3
# [29] = system: SNB-19
# [30] = system: SNB-78
# [31] = system: SR
# [32] = system: TK-10
# [33] = system: U-251
# [34] = system: UACC-257
# [35] = system: UACC-62
# [36] = system: UO-31
# [37] = system: 786-0
# [38] = system: A549
# [39] = system: CAKI-1
# [40] = system: COLO 205
# [41] = system: DLD-1
# [42] = system: HCC 2998
# [43] = system: HCT-15
# [44] = system: HOP-18
# [45] = system: LOX IMVI
# [46] = system: LXFL 529
# [47] = system: Malme-3M
# [48] = system: NCI-H226
# [49] = system: OVCAR-3
# [50] = system: OVCAR-4
# [51] = system: RPMI-8226
# [52] = system: SF-268
# [53] = system: SF-539
# [54] = system: SK-MEL-2
# [55] = system: SK-MEL-5
# [56] = system: SN12C
# [57] = system: SNB-75
# [58] = system: SW-620
# [59] = system: XF498
structure (smiles),measurement,setting,value
CC(=O)O[C@H]1CCC(C)=CCC[C@@]2(C)C(CC[C@@H]2[C@@H](C)/C=C/C(C)C)c2ccc(cc2C(=O)O)C1 (some centres not stated),GI50,[1],6.35 µM (inactive)
same,GI50,[2],3.6 µM (inactive)
same,GI50,[3],3.13 µM (inactive)
same,GI50,[4],4.49 µM (inactive)
same,GI50,[5],3.84 µM (inactive)
same,GI50,[6],11 µM (inactive)
same,GI50,[7],2.94 µM (inactive)
same,GI50,[8],1.73 µM (inactive)
same,GI50,[9],2.45 µM (inactive)
same,GI50,[10],2.84 µM (inactive)
same,GI50,[11],3.93 µM (inactive)
same,GI50,[12],2.96 µM (inactive)
same,GI50,[13],3.21 µM (inactive)
same,GI50,[14],3.67 µM (inactive)
same,GI50,[15],2.21 µM (inactive)
same,GI50,[16],5.02 µM (inactive)
same,GI50,[17],4.18 µM (inactive)
same,GI50,[18],1.92 µM (inactive)
same,GI50,[19],2.63 µM (inactive)
same,GI50,[20],3.12 µM (inactive)
same,GI50,[21],2.49 µM (inactive)
same,GI50,[22],3.28 µM (inactive)
same,GI50,[23],4.06 µM (inactive)
same,GI50,[24],3.11 µM (inactive)
same,GI50,[25],7.4 µM (inactive)
same,GI50,[26],2.9 µM (inactive)
same,GI50,[27],5.05 µM (inactive)
same,GI50,[28],3.6 µM (inactive)
same,GI50,[29],3.04 µM (inactive)
same,GI50,[30],3.33 µM (inactive)
same,GI50,[31],2.59 µM (inactive)
same,GI50,[32],3.45 µM (inactive)
same,GI50,[33],2.54 µM (inactive)
same,GI50,[34],4.59 µM (inactive)
same,GI50,[35],1.95 µM (inactive)
same,GI50,[36],2.03 µM (inactive)
CN1C(=O)C(=O)c2cc3c(c4c2c1cc1ccccc14)OCO3 [CEPHARADIONE A],GI50,[37],7.23 µM (inactive)
same,GI50,[1],> 100 µM (inactive)
same,GI50,[38],33.7 µM (inactive)
same,GI50,[2],18.8 µM (inactive)
same,GI50,[39],31.3 µM (inactive)
same,GI50,[3],8.95 µM (inactive)
same,GI50,[40],28.7 µM (inactive)
same,GI50,[41],31.2 µM (inactive)
same,GI50,[4],31.6 µM (inactive)
same,GI50,[5],22.9 µM (inactive)
same,GI50,[6],69.7 µM (inactive)
same,GI50,[42],49.1 µM (inactive)
same,GI50,[7],15.6 µM (inactive)
same,GI50,[43],36.1 µM
same,GI50,[8],38.5 µM (inactive)
same,GI50,[44],42.9 µM (inactive)
same,GI50,[9],41.2 µM (inactive)
same,GI50,[10],> 100 µM (inactive)
same,GI50,[11],34.4 µM (inactive)
same,GI50,[12],37.6 µM (inactive)
same,GI50,[13],27.2 µM (inactive)
same,GI50,[14],39.4 µM (inactive)
same,GI50,[15],18.3 µM (inactive)
same,GI50,[45],23 µM (inactive)
same,GI50,[46],30.8 µM (inactive)
same,GI50,[16],26.7 µM (inactive)
same,GI50,[17],28.4 µM (inactive)
same,GI50,[18],17.9 µM (inactive)
same,GI50,[47],38.8 µM (inactive)
same,GI50,[48],25.2 µM (inactive)
same,GI50,[19],40.7 µM (inactive)
same,GI50,[20],26.7 µM (inactive)
same,GI50,[21],22.6 µM (inactive)
same,GI50,[49],62.1 µM (inactive)
same,GI50,[50],58.6 µM (inactive)
same,GI50,[22],48.8 µM (inactive)
same,GI50,[23],24.1 µM (inactive)
same,GI50,[51],25.1 µM (inactive)
same,GI50,[24],25.6 µM (inactive)
same,GI50,[52],21.9 µM (inactive)
same,GI50,[26],38.7 µM (inactive)
same,GI50,[53],45.6 µM (inactive)
same,GI50,[27],40.5 µM (inactive)
same,GI50,[54],46.7 µM (inactive)
same,GI50,[55],28.4 µM (inactive)
same,GI50,[28],50.4 µM (inactive)
same,GI50,[56],37.7 µM (inactive)
same,GI50,[29],47.4 µM (inactive)
same,GI50,[57],39.2 µM (inactive)
same,GI50,[30],7.83 µM (inactive)
same,GI50,[31],7.5 µM (inactive)
same,GI50,[58],35.4 µM (inactive)
same,GI50,[32],52.5 µM (inactive)
same,GI50,[33],43.4 µM (inactive)
same,GI50,[34],51.5 µM (inactive)
same,GI50,[35],16.9 µM (inactive)
same,GI50,[36],20.2 µM (inactive)
same,GI50,[59],> 100 µM (inactive)
O=C1c2ccccc2C2CCC1c1ccccc12 (configuration not stated),GI50,[37],38.8 µM (inactive)
same,GI50,[1],58.6 µM (inactive)
same,GI50,[38],25.2 µM (inactive)
same,GI50,[2],25.6 µM (inactive)
same,GI50,[39],34.8 µM (inactive)
same,GI50,[3],23.9 µM (inactive)
same,GI50,[40],19.2 µM (inactive)
same,GI50,[41],33.5 µM (inactive)
same,GI50,[4],19.4 µM (inactive)
same,GI50,[5],27.4 µM (inactive)
same,GI50,[6],43.4 µM (inactive)
same,GI50,[42],53.1 µM (inactive)
same,GI50,[7],19.6 µM (inactive)
same,GI50,[43],30.6 µM
same,GI50,[8],15 µM (inactive)
same,GI50,[44],73.6 µM (inactive)
same,GI50,[9],48 µM (inactive)
same,GI50,[10],20.3 µM (inactive)
same,GI50,[11],29.9 µM (inactive)
same,GI50,[12],62.2 µM (inactive)
same,GI50,[13],23.6 µM (inactive)
same,GI50,[14],32.8 µM (inactive)
same,GI50,[15],31.6 µM (inactive)
same,GI50,[45],36.3 µM (inactive)
same,GI50,[46],36.3 µM (inactive)
same,GI50,[16],36.5 µM (inactive)
same,GI50,[17],25.6 µM (inactive)
same,GI50,[18],18 µM (inactive)
same,GI50,[47],18.3 µM (inactive)
same,GI50,[48],45.6 µM (inactive)
same,GI50,[19],24 µM (inactive)
same,GI50,[20],33.3 µM (inactive)
same,GI50,[21],25 µM (inactive)
same,GI50,[49],30.5 µM (inactive)
same,GI50,[50],30.1 µM (inactive)
same,GI50,[22],> 100 µM (inactive)
same,GI50,[23],43.2 µM (inactive)
same,GI50,[51],16 µM (inactive)
same,GI50,[24],24.4 µM (inactive)
same,GI50,[52],31.1 µM (inactive)
same,GI50,[26],33.4 µM (inactive)
same,GI50,[53],64 µM (inactive)
same,GI50,[27],32.9 µM (inactive)
same,GI50,[54],32.1 µM (inactive)
same,GI50,[55],16.3 µM (inactive)
same,GI50,[28],41.5 µM (inactive)
same,GI50,[56],43.8 µM (inactive)
same,GI50,[29],65 µM (inactive)
same,GI50,[57],24.5 µM (inactive)
same,GI50,[30],29.9 µM (inactive)
same,GI50,[31],20.5 µM (inactive)
same,GI50,[58],39.2 µM (inactive)
same,GI50,[32],34.9 µM (inactive)
same,GI50,[33],39.5 µM (inactive)
same,GI50,[34],25.3 µM (inactive)
same,GI50,[35],34.6 µM (inactive)
same,GI50,[36],21.1 µM (inactive)
same,GI50,[59],29.5 µM (inactive)
